Measurements from patent publication EP0366226A1, “Stabilized thiocarbonate solutions and the use thereof for controlling soil pests” (UNION OIL COMPANY OF CALIFORNIA, priority 1988, dated 1990).
Where a name gives a salt, the structure may show the parent alone.

Assays:
[1] = Accelerated ageing at 84° C.: effect of additives on thiocarbonate half-life; format: physicochemical; conditions: parentheses = decrease
Protocol: The effect of elemental sulfur additions and the addition of free radical scavengers on the half-life of thiocarbonate solutions was determined by an accelerated adding procedure in which the compositions were stored at 84° C. in order to accelerate decomposition and thereby facilitate data acquisition. Incremental additions of 1.0, 3.0 and 5.0 weight percent elemental sulfur were made, and these corresponds to 0.16, 0.48 and 0.86 equivalents of sulfur per equivalent of ammonium sulfide, respectively. Since the solutions contained 1 equivalent of ammonium sulfide per equivalent of ammonium tetrathiocarbonate (based on the weight percent values for those components given above), the amount of ammonium polysulfide in the solution correspond, nominally, to 0.16, 0.48 and 0.86 equivalents polysulfide per equivalent of thiocarbonate for the 3 sulfur concentrations employed.

[2] = CS2 in equilibrium vapor phase over concentrated thiocarbonate solutions (gas chromatography); format: physicochemical; conditions: for equilibrium CS₂ concentration in the vapor phase: 24° C., stoichiometric aqueous solution, 12.9 weight percent equivalent carbon disulfide
Protocol: Accordingly, the amount of base, sulfide and/or polysulfide employed should be sufficient to reduce the carbon disulfide partial pressure of the solution by the desired amount, and the amount of additive required to achieve that effect can be easily determined by adding different, known quantities of base, sulfide and/or polysulfide to the desired thiocarbonate solution, confining the vapor space over the solution at 24° C. for a sufficient period of time, e.g. about 24 hours, and analyzing, the vapor phase by gas chromotography for carbon disulfide. Lower additive concentrations will result in somewhat higher CS₂ equilibrium concentrations (e.g. higher CS₂ partial pressures), and higher additive concentrations will result in lower CS₂ partial pressures.
A series of solutions containing 12.9 weight percent equivalent carbon disulfide as sodium tri- or tetrathiocarbonate were prepared by combining sodium hydroxide, deionized water, sulfur (in the case of tetrathiocarbonate only), hydrogen sulfide and carbon disulfide. In the stoichiometric solutions, the reactants were combined in proportions sufficient to provide sodium tri- or tetrathiocarbonate solutions containing 12.9 weight percent equivalent carbon disulfide without any excess reactant. In addition to the stoichiometric solutions, solutions were prepared with systematically increasing sodium hydroxide concentrations at constant equivalent carbon disulfide concentrations, so that excess base was provided in those solutions in the proportions given in the following table.
The respective solutions were prepared by combining the appropriate amounts of base, water, and elemental sulfur (when used to form the tetrathiocarbonate), in 250 ml. bottles. The contents were then tared, and the appropriate amounts of hydrogen sulfide gas were bubbled in with cooling as necessary to form 100 grams of each of the test solutions. The bottles were then capped with Mininert valves, and the appropriate amount of carbon disulfide was added by injecting with a syringe. All sample bottles were shaken overnight to complete the reaction and were then allowed to equilibrate 3 days at 24° C., and the vapor phase was then sampled and analyzed for carbon disulfide by gas chromotography. The results are reported in the following table and show the effects of increasing base concentrations on carbon disulfide partial pressure (carbon disulfide content of the equilibrium vapor phase). Hydrogen sulfide was not detected in the vapor phase of these formulations at an H₂S detection limit of 100 ppmv.
The operation described in Example 19 was repeated with the exception that sodium sulfide (Na₂S) was substituted for excess base. The sodium sulfide was introduced by forming solutions containing incrementally greater amounts of sodium hydroxide and then adding additional amounts of hydrogen sulfide equivalent to the amount of excess sodium hydroxide to convert the excess sodium hydroxide to sodium sulfide in situ.

[3] = Degradation time in sandy loam soil at different moisture (CS2 in air space by gas chromatography); format: physicochemical
Protocol: A sandy loam soil was placed in 1-liter glass bottles, fitted with stoppers having fluorocarbon liners and silicone rubber septa, to give a soil depth of about 4 cm. Water was added to the soil, in quantities to obtain 50 and 100 percent soil saturation. Thiocarbonate solution or carbon disulfide was then injected near the bottom of the soil layer, the bottles were promptly sealed, and the air space in the bottles was sampled at intervals with a syringe, for gas chromatographic analysis of CS₂. The results are summarized below, wherein degradation time is the number of hours required to achieve the maximum CS₂ concentration in the air space.

[4] = Solvency of aqueous thiocarbonate solutions for urea; format: physicochemical
Protocol: Urea was added to a 41.5 percent, by weight, aqueous solution of calcium tetrathiocarbonate until the solubility limit of urea was reached. At room temperature, the solution dissolved 122 percent by weight urea. The resulting solution was 55 percent urea, 18.6 percent calcium tetrathiocarbonate, and 26.3 percent water, by weight. Thus, the solvency of the aqueous solution of calcium tetrathiocarbonate for urea was at least as great as that of water alone. Similarly, a 46 percent solution of potassium tetrathiocarbonate dissolved 100 percent of its own weight of urea. Similar results were obtained with other tri- and tetrathiocarbonates of alkali metal and alkaline earth metals.

Verticillium dahliae = assay: Fungicidal test, radial growth of mycelia from treated agar blocks; format: cell-based
Protocol: (§1) Thiocarbonate solutions were used in a test of their fungicidal properties. Cultures of four plant pathogenic fungi were grown upon potato dextrose agar at room temperature, in diffuse natural lighting. After one week, square blocks having 2 millimeter sides were cut from the edges of actively drawings mycelia spots on the agar.
(§2) The blocks were immersed in sterile deionized water, as a control, or in dilutions of thiocarbonate solutions using the sterile water, in a closed container. Subsequently, the blocks were removed and placed upon agar in clean plates, and mycelia were allowed to grow for one week.
(§3) Radial growth of mycelia colonies was measured for each of the six to eight replicate plates used for a particular fungus, and average colony radius was calculated. Percent control is defined by the following equation: […]
(§4) Concentrations given for solutions used to treat the agar blocks are expressed in grams of thiocarbonate solution per liter of diluted solution.

Sclerotium rolfsii = assay: as above; format: cell-based
Protocol: as §1, §2, §3, §4

Fusarium oxysporum = assay: as above; format: cell-based
Protocol: as §1, §2, §3, §4

Phytophthora cinnamomi = assay: as above; format: cell-based
Protocol: as §1, §2, §3, §4

Fusarium spp. = assay: Petri dish tests in potato dextrose agar and broth; format: cell-based; conditions: when the broth also contained Trichoderma spp., read-out: solution concentration with which control was obtained
Source text: In petri dish tests of CaCS₄ against the fungus Fusarium spp., control with solutions containing less than about 10 grams per liter of the compound, in both potato dextrose agar and potato dextrose broth, was obtained using the solution when the broth also contained another fungus, Trichoderma spp.

[5] = Effect of pH on production of CS2 from thiocarbonates in citrate-phosphate buffers (gas chromatography of air); format: physicochemical
Protocol: Pure carbon disulfide was also injected, for comparison. A syringe was used to periodically sample air in the bottle, and the air was analyzed by gas chromotography.

[6] = tested on: sugar beet cyst nematodes (Heterodera spp.); assay: Soil treatment of infested sugar beets; format: in vivo; conditions: about 94 kilograms per hectare, dissolved in irrigation water
Protocol: Sugar beets, infested with sugar beet cyst nematodes (Heterodera spp.), were treated by application to the soil of about 94 kilograms per hectare of CaCS₄, dissolved in irrigation water.

[7] = tested on: nitrification of ammoniacal fertilizers in soil; assay: Inhibition of nitrification of urea in sandy loam soil plots; conditions: 5 weight percent solution at 100 liters per acre after 200 lbs. urea per acre; versus untreated plot
Source text: The ability of the described thiocarbonate compounds to inhibit nitrification of ammoniacal fertilizers in soil can be illustrated by applying to two separate plots of sandy loam soil a urea solution in irrigation water at a rate corresponding to 200 lbs. urea per acre with sufficient water to increase the soil water content to at least 50 percent. This application can be followed, on one of the plots treated with the urea solution and within one hour of application of the urea solution, with application of an aqueous solution containing 5 weight percent calcium tetrathiocarbonate applied at a rate of 100 liters per acre in sufficient irrigation water to increase the soil water content to 100 percent of saturation.

[8] = additive Concentration 0.5 Wt. %
[9] = additive Concentration 1.0 Wt. %
[10] = additive Concentration 2.0 Wt. %
[11] = additive Concentration 5.0 Wt. %
[12] = Base 0.00 equivalent per equivalent of CS2, sodium salt, 12.9 weight percent equivalent CS2
[13] = Base 0.02 equivalent per equivalent of CS2
[14] = Base 0.04 equivalent per equivalent of CS2
[15] = Base 0.08 equivalent per equivalent of CS2
[16] = Base 0.12 equivalent per equivalent of CS2
[17] = Sulfide 0.02 equivalent per equivalent of CS2
[18] = Sulfide 0.04 equivalent per equivalent of CS2
[19] = Sulfide 0.08 equivalent per equivalent of CS2
[20] = Sulfide 0.12 equivalent per equivalent of CS2
[21] = Sulfide (Na2S) 0.00 equivalent per equivalent of CS2, sodium salt, 12.9 weight percent equivalent CS2
[22] = 1 g/l, listed as K₂CS₄ (9.43%CS₂)
[23] = 10 g/l, listed as K₂CS₄ (9.43%CS₂)
[24] = 1 g/l, listed as CaCS₄ (2.8%CS₂)
[25] = 10 g/l, listed as CaCS₄ (2.8%CS₂)
[26] = 1 g/l, listed as Na₂CS₄ (10.6%CS₂)
[27] = 10 g/l, listed as Na₂CS₄ (10.6%CS₂)

O=C(O)CC(O)(CC(=O)O)C(=O)O [Citric Acid, Na Salt]
Increase (Decrease) in Half-Life, % [1, 8]: 0%
Increase (Decrease) in Half-Life, % [1, 9]: 0%
Increase (Decrease) in Half-Life, % [1, 10]: 0%

COc1ccc(O)cc1 [p-Methoxyphenol]
Increase (Decrease) in Half-Life, % [1, 8]: 0%
Increase (Decrease) in Half-Life, % [1, 9]: 0%
Increase (Decrease) in Half-Life, % [1, 10]: 0%

NC(N)=O [Urea]
Increase (Decrease) in Half-Life, % [1, 11]: 0%

S=C(S)S [Trithiocarbonate, sodium trithiocarbonate]
equilibrium CS₂ concentration in the vapor phase [2]: 27 volume percent
CS₂ in Equilibrium Vapor at 24° C., Vol. % [2, 12]: 27.5 Vol. %
CS₂ in Equilibrium Vapor at 24° C., Vol. % [2, 13]: 34.2 Vol. %
CS₂ in Equilibrium Vapor at 24° C., Vol. % [2, 14]: 30.0 Vol. %
CS₂ in Equilibrium Vapor at 24° C., Vol. % [2, 15]: 0.67 Vol. %
CS₂ in Equilibrium Vapor at 24° C., Vol. % [2, 16]: 0.16 Vol. %
CS₂ in Equilibrium Vapor at 24° C., Vol. % [2, 17]: 45.9 Vol. %
CS₂ in Equilibrium Vapor at 24° C., Vol. % [2, 18]: 1.39 Vol. %
CS₂ in Equilibrium Vapor at 24° C., Vol. % [2, 19]: 0.57 Vol. %
CS₂ in Equilibrium Vapor at 24° C., Vol. % [2, 20]: 0.42 Vol. %
CS₂ in Equilibrium Vapor at 24° C., Vol. % [2, 21]: 27.5 Vol. %

S=C(S)SS [K₂CS₄, potassium tetrathiocarbonate]
Degradation Time ([3]; Soil Moisture 50 % of Saturation): 5 h
Degradation Time ([3]; Soil Moisture 100 % of Saturation): 48 h
urea dissolved by the solution ([4]; 46 percent solution): 100% of its own weight
Percent Control Verticillium dahliae (Verticillium dahliae; [22]): 27%
Percent Control Verticillium dahliae (Verticillium dahliae; [23]): 15%
Percent Control Sclerotium rolfsii (Sclerotium rolfsii; [22]): 42%
Percent Control Sclerotium rolfsii (Sclerotium rolfsii; [23]): 8%
Percent Control Fusarium oxysporum (Fusarium oxysporum; [22]): 8%
Percent Control Fusarium oxysporum (Fusarium oxysporum; [23]): 10%
Percent Control Fusarium oxysporum (Fusarium oxysporum; 100 g/l thiocarbonate solution per liter of diluted solution, listed as K₂CS₄ (9.43%CS₂)): 76%
Percent Control Phytophthora cinnamomi (Phytophthora cinnamomi; [22]): 56%
Percent Control Phytophthora cinnamomi (Phytophthora cinnamomi; [23]): 68%

Oc1ccc(O)cc1 [Hydroquinone]
Increase (Decrease) in Half-Life, % [1, 8]: 0%

CCN(CC)CC [Triethylamine]
Increase (Decrease) in Half-Life, % [1, 9]: 0%

O=C1O[C@H]([C@@H](O)CO)C(O)=C1O [Ascorbic Acid]
Increase (Decrease) in Half-Life, % [1, 8]: 0%
Increase (Decrease) in Half-Life, % [1, 9]: 0%
Increase (Decrease) in Half-Life, % [1, 10]: 0%

S=C(S)SS [CaCS₄, calcium tetrathiocarbonate]
Degradation Time ([3]; Soil Moisture 0 % of Saturation, hours to maximum CS2 concentration in the air space): 4 h
minimal effective concentration (Fusarium spp.): < 10000 µg/mL
urea dissolved by the solution ([4]; 41.5 percent by weight aqueous solution, room temperature): 122 percent by weight
Half-life (minutes) for production of carbon disulfide ([5]; pH 5.2, 125 milligrams of thiocarbonate ion per liter): 1 min
Half-life (minutes) for production of carbon disulfide ([5]; pH 6.0): 1.8 min
Half-life (minutes) for production of carbon disulfide ([5]; pH 7.0): 2.7 min
Half-life (minutes) for production of carbon disulfide ([5]; pH 8.0, CaCS4 values above pH 7 called unreliable): 8.0 min
Percent Control Verticillium dahliae (Verticillium dahliae; [24]): 13%
Percent Control Verticillium dahliae (Verticillium dahliae; [25]): 22%
Percent Control Sclerotium rolfsii (Sclerotium rolfsii; [24]): 46%
Percent Control Sclerotium rolfsii (Sclerotium rolfsii; [25]): 62%
Percent Control Fusarium oxysporum (Fusarium oxysporum; [24]): 3%
Percent Control Fusarium oxysporum (Fusarium oxysporum; [25]): 18%
Percent Control Fusarium oxysporum (Fusarium oxysporum; 100 g/l thiocarbonate solution per liter of diluted solution, listed as CaCS₄ (2.8%CS₂)): 100%
Percent Control Phytophthora cinnamomi (Phytophthora cinnamomi; [24]): 56%
Percent Control Phytophthora cinnamomi (Phytophthora cinnamomi; [25]): 56%
counts and viability of nematode larvae in the soil following treatment [6]: remained high, but the larvae were not viable
nitrification of urea in the treated soil [7]: nitrified more slowly

Elemental Sulfur
Increase (Decrease) in Half-Life, % [1, 9]: 0%
Increase (Decrease) in Half-Life, % ([1]; additive Concentration 3.0 Wt. %): 16%
Increase (Decrease) in Half-Life, % [1, 11]: 22%

S=C(S)SS [Na₂CS₄, sodium tetrathiocarbonate]
Percent Control Verticillium dahliae (Verticillium dahliae; [26]): 23%
Percent Control Sclerotium rolfsii (Sclerotium rolfsii; [27]): 100%
Percent Control Fusarium oxysporum (Fusarium oxysporum; [26]): 4%
Percent Control Fusarium oxysporum (Fusarium oxysporum; [27]): 6%
Percent Control Fusarium oxysporum (Fusarium oxysporum; 100 g/l thiocarbonate solution per liter of diluted solution, listed as Na₂CS₄ (10.6%CS₂)): 100%
Percent Control Phytophthora cinnamomi (Phytophthora cinnamomi; [27]): 37%
equilibrium CS₂ concentration in the vapor phase [2]: approximately 14 volume percent
CS₂ in Equilibrium Vapor at 24° C., Vol. % [2, 12]: 14.4 Vol. %
CS₂ in Equilibrium Vapor at 24° C., Vol. % [2, 13]: 0.87 Vol. %
CS₂ in Equilibrium Vapor at 24° C., Vol. % [2, 14]: 0.47 Vol. %
CS₂ in Equilibrium Vapor at 24° C., Vol. % [2, 15]: 0.29 Vol. %
CS₂ in Equilibrium Vapor at 24° C., Vol. % [2, 16]: 0.27 Vol. %
CS₂ in Equilibrium Vapor at 24° C., Vol. % [2, 17]: 6.60 Vol. %
CS₂ in Equilibrium Vapor at 24° C., Vol. % [2, 18]: 0.74 Vol. %
CS₂ in Equilibrium Vapor at 24° C., Vol. % [2, 19]: 0.12 Vol. %
CS₂ in Equilibrium Vapor at 24° C., Vol. % [2, 20]: 0.13 Vol. %
CS₂ in Equilibrium Vapor at 24° C., Vol. % [2, 21]: 14.4 Vol. %
